Source: PMC8583996, “Berberine Inhibits MDA-MB-231 Cells as an Agonist of G Protein-Coupled Estrogen Receptor 1” (International Journal of Molecular Sciences, 2021)

Biological target: T1, human GPER1 (Homo sapiens, UniProt Q99527)
T1 construct: Sf9 baculovirus; Ni-NTA (tag not described) and size exclusion; DDM/CHS; primarily monomer
Assay: intrinsic fluorescence quenching titration
Type: binding

T1 sequence (Q99527 whole entry): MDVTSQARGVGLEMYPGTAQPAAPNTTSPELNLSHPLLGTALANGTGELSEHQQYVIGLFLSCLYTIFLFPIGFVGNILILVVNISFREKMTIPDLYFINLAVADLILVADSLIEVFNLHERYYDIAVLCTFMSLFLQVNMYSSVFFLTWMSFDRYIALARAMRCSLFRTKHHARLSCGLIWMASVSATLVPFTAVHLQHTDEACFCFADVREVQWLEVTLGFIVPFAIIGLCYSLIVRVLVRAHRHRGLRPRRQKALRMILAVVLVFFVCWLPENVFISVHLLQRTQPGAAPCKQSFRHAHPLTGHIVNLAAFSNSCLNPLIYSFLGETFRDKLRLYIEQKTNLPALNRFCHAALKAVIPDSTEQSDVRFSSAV

- Kd: 0.89 nM
SMILES: COc1ccc2cc3[n+](cc2c1OC)CCc1cc2c(cc1-3)OCO2 [BBR]
